Counter-ions that a name gives are not always drawn.

Results on 10 molecules are retold here after US4258185A, “Pyridazinone compounds” (Yoshitomi Pharmaceutical Industries, Ltd., priority 1980, dated 1981).

Test [1] has as its system platelet aggregation. As to the kind of experiment: Inhibitory activity on platelet aggregation in rats (ADP-induced, after oral treatment). Format: in vivo. The following applies: Rattus norvegicus, 2 hours after oral treatment, 1.5×10^-5 M adenosine diphosphate, read-out: Percent inhibition of platelet aggregation, Rat. Here is the method: (§1) I. Inhibitory activity on platelet aggregation in rats and rabbits
(§2) The citrated blood was obtained 2 hours after the oral treatment with test compounds. The platelet aggregation of platelet rich-plasma was induced by addition of 1.5×10^-5 M adenosine diphosphate (final concentration) and was measured with a Born type six channel aggregometer (G.V.R. Born, J. Physiol. 162, 67 (1962)). […] II. Antihypertensive activity in spontaneously hypertensive rats

The subject of test [2] is spontaneously hypertensive rats. Put plainly: Antihypertensive activity in spontaneously hypertensive rats (tail blood pressure). Format: in vivo, rat. To be noted: po, decrease of maximum blood pressure at 5 hours after treatment. The method, then: as §2
A group of 5 spontaneously hypertensive rats (300-350 g) was used. Tail blood pressure was determined by a rat tail manometer (NARCO, PE-300) without anesthesia immediately before and 5 hours after the oral treatment with test compounds. The rat was warmed at 40° C. for 10 minutes. The apparatus detects blood flow pulses in the tail by a pulse sensor. The arterial blood flow was interrupted by applying pressure to the tail through a pneumatic cuff. The blood flow reappeared when the cuff pressure was decreased. The value was approximately equal to the maximum blood pressure.

The subject of test [3] is platelet aggregation. Put plainly: Inhibitory activity on platelet aggregation in rabbits (ADP-induced, after oral treatment). The test is classed as in vivo. To be noted: Oryctolagus cuniculus, 2 hours after oral treatment, 1.5×10^-5 M adenosine diphosphate, ± SE, read-out: Percent inhibition of platelet aggregation, Rabbit. The method, then:
as §1, §2

As to `CC(=O)OCC1CC(=O)NN=C1c1ccc2c(c1)CCC(=O)N2C` (stereo not drawn) [Compound B, 6-(5-Acetoxymethyl-3-oxo-2,3,4,5-tetrahydropyridazin-6-yl)-1-methyl-1,2,3,4-tetrahydroquinolin-2-one], the inhibition (in general, the percentage by which the read-out fell short of the control) at 3 mg/kg with platelet aggregation [1] was 51%; with platelet aggregation [3], 85 ± 6%. The results for the “Decrease of tail blood pressure in SHR” value in test [2] (3 mg/kg) and in test [2] (30 mg/kg) were 31 mmHg and 62 mmHg, respectively.

On to `CC1CC(=O)NN=C1c1ccc2c(c1)C(C)(C)CC(=O)N2C` (stereo not drawn) [Compound C, 6-(5-Methyl-3-oxo-2,3,4,5-tetrahydropyridazin-6-yl)-1,4,4-trimethyl-1,2,3,4-tetrahydroquinolin-2-one], for which the inhibition at 3 mg/kg in the test on platelet aggregation [1] is 59%; with platelet aggregation [3] it was 93 ± 1%. Besides, the “Decrease of tail blood pressure in SHR” value came out at 48 mmHg in test [2] (3 mg/kg) and 63 mmHg in test [2] (30 mg/kg).

With `CC1CC(=O)NN=C1c1ccc2c(c1)C(C)CC(=O)N2C` (stereo not drawn) [Compound D, 6-(5-Methyl-3-oxo-2,3,4,5-tetrahydropyridazin-6-yl)-1,4-dimethyl-1,2,3,4-tetrahydroquinolin-2-one], the inhibition at 0.1 mg/kg in the test with platelet aggregation [1] (0.1 mg/kg) is 38%. For the same molecule, the results for the “Decrease of tail blood pressure in SHR” value in test [2] (0.3 mg/kg) and in test [2] (3 mg/kg) were 16 mmHg and 71 mmHg, respectively. Besides, the inhibition at 0.3 mg/kg in the test with platelet aggregation [3] (0.3 mg/kg) is 78 ± 6%.

With `CN1C(=O)CC(C)(C)c2cc(C3=NNC(=O)CC3CO)ccc21` (stereo not drawn) [Compound E, 6-(5-Hydroxymethyl-3-oxo-2,3,4,5-tetrahydropyridazin-6-yl)-1,4,4-trimethyl-1,2,3,4-tetrahydroquinolin-2-one], the inhibition at 10 mg/kg in the test on platelet aggregation [1] (10 mg/kg) worked out at 43%. Further, the inhibition at 30 mg/kg in the test on platelet aggregation [3] (30 mg/kg) came out at 48 ± 16%.

On to `CN1C(=O)CCc2cc(C3=NNC(=O)CC3CO)ccc21` (stereo not drawn) [Compound F, 6-(5-Hydroxymethyl-3-oxo-2,3,4,5-tetrahydropyridazin-6-yl)-1-methyl-1,2,3,4-tetrahydroquinolin-2-one], for which, in the test on platelet aggregation [1], the inhibition at 3 mg/kg was 62%. Further, the “Decrease of tail blood pressure in SHR” value in test [2] (30 mg/kg) was 92 mmHg.

`CCC1CC(=O)NN=C1c1ccc2c(c1)CCC(=O)N2CC` (stereo not drawn) [Compound G, 6-(5-Ethyl-3-oxo-2,3,4,5-tetrahydropyridazin-6-yl)-1-ethyl-1,2,3,4-tetrahydroquinolin-2-one]: the inhibition at 3 mg/kg in the test on platelet aggregation [1] is 34%.

For the molecule `CCN1C(=O)CCc2cc(C3=NNC(=O)CC3CO)ccc21` (stereo not drawn) [Compound H, 6-(5-Hydroxymethyl-3-oxo-2,3,4,5-tetrahydropyridazin-6-yl)-1-ethyl-1,2,3,4-tetrahydroquinolin-2-one], the inhibition at 3 mg/kg in the test on platelet aggregation [1] was determined as 46%.

Turning to `CCN1C(=O)CCc2cc(C3=NNC(=O)CC3COC(C)=O)ccc21` (stereo not drawn) [Compound I, 6-(5-Acetoxymethyl-3-oxo-2,3,4,5-tetrahydropyridazin-6-yl)-1-ethyl-1,2,3,4-tetrahydroquinolin-2-one], the inhibition at 3 mg/kg with platelet aggregation [1] amounted to 46%. Moreover, in test [2] (30 mg/kg), the “Decrease of tail blood pressure in SHR” value is on record as 47 mmHg.

As to `CCN1C(=O)CCc2cc(C3=NNC(=O)CC3C)ccc21` (stereo not drawn) [Compound J, 6-(5-Methyl-3-oxo-2,3,4,5-tetrahydropyridazin-6-yl)-1-ethyl-1,2,3,4-tetrahydroquinolin-2-one], the inhibition at 3 mg/kg in the test with platelet aggregation [1] stood at 35%.

Turning to `CC1CC(=O)N(CCN2CCOCC2)N=C1c1ccc2c(c1)CCC(=O)N2C` (stereo not drawn) [Compound K, 6-[5-Methyl-2-(2-morpholinoethyl)-3-oxo-2,3,4,5-tetrahydropyridazin-6-yl]-1-methyl-1,2,3,4-tetrahydroquinolin-2-one hydrochloride hemihydrate], the inhibition at 3 mg/kg amounted to 51% in the test with platelet aggregation [1] and 75 ± 8% with platelet aggregation [3]. For the same molecule, the “Decrease of tail blood pressure in SHR” value in test [2] (3 mg/kg) turned out to be 45 mmHg.
